Test results as given in paper PMC8355244, “A fragment-based approach identifies an allosteric pocket that impacts malate dehydrogenase activity” (Communications Biology, 2021).
Where two headings read alike, the source gives them in different places.

Target: T1, WT PfMDH (Plasmodium falciparum, UniProt Q6VVP7)
T1 construct: The full-length WT PfMDH gene was cloned into pETM-13; made in house; host or cells: E. coli Rosetta 2 (DE3) pLysS
Assay: Activity screening of 4DT / 4-phenylthiazol-2-amine derivatives (oxidation of malate, absorbance at 340 nm)
Type: biochemical
Conditions: for inhibition at 500 µM: Dunnett's multiple comparisons test, read-out: Mean Diff. (positive control vs. compound); for Slope repl1 / Slope repl2: linear regression slope of absorbance 340 nm vs time; for Slope normalized repl1: slope relative to control = 1, replicate 1; for Slope normalized repl2: slope relative to control = 1, replicate 2
Protocol: The oxidation of malate to oxaloacetate was assayed spectrophotometrically in flat-bottomed Corning 96-well microplates in a total volume of 250.0 µl in 50 mM glycine buffer pH 10.2[24] with an additional 400 mM NaCl for protein stability. The increase of absorbance at 340 nm was recorded in kinetic mode using a Tecan Spark multimode microplate reader at 298 K. A mastermix of 50 mM NAD+ and 44 μM PfMDH was used for both the screening and kinetics experiments. The final concentration of protein and cofactor were […], respectively. Positive control groups were set (absence of compound) in the same plate as the treated group. The absorbance from the background noise was subtracted from the data and then a linear regression model was employed in order to get the line slope from the first 5 min of the reaction. The percentage of enzymatic activity has been calculated as described by Eq. (1)1 enzymeactivity(%)=slopetreated/slopepositivecontrol*100
1.3 µL of derivatives of 4-phenylthiazol-2-amine in 100% DMSO were mixed with 237.7 µL of a mastermix of WT PfMDH previously incubated with NAD+. The final compound concentration used in this screening was 500 µM in the presence of 0.5% (v/v) DMSO. The microplate was sealed with silver foil for 1-h incubation at 25–35 °C. Finally, reactions in both the samples and control wells were started upon the addition of 13.0 µL of 5 mM malate). At the end of the experiments, the reaction of the plate was spectrophotometrically assayed at 600 nm in order to identify turbidity due to the low solubility of the compound. All measurements were performed in duplicate.

[1] = 500 µM compound, Dunnett test details, positive control mean 100, n 2, read-out: Mean 2 (mean % enzymatic activity of treated group)
[2] = 500 µM compound, control 100%, replicate 1, read-out: % enzymatic activity repl1
[3] = 500 µM compound, control 100%, replicate 2, read-out: % enzymatic activity repl2

T1 sequence (Q6VVP7 entry or part of it): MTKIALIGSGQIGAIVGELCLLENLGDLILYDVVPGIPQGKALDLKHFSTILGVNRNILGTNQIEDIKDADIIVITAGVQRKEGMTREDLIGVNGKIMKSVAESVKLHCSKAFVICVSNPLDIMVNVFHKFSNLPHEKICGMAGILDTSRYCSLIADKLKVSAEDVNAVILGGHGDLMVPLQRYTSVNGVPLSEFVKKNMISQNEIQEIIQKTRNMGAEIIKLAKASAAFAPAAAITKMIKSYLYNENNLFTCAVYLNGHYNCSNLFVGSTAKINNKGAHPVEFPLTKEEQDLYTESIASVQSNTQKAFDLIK

| Structure (SMILES) | remaining activity at 500 µM [1] [%] | inhibition at 500 µM (500 µM compound) [%] | remaining activity at 500 µM [2] [%] | remaining activity at 500 µM [3] [%] | Slope repl1 (500 µM compound, replicate 1) | Slope repl2 (500 µM compound, replicate 2) | Slope normalized repl1 (500 µM compound) | Slope normalized repl2 (500 µM compound) | remaining activity at 500 µM (read-out: enzyme activity) [%] |
| --- | --- | --- | --- | --- | --- | --- | --- | --- | --- |
| O=C(O)c1cc(-c2cccs2)on1 [compound 1b] | 60 | 40.5 | 65 | 54 | 0.0217 | 0.019 | 0.6515 | 0.5422 | 60 |
| O=C(O)c1nc(-c2ccccc2)cs1 [4a] | 65 | 35 | 64 | 66 | 0.02124 | 0.02324 | 0.6376 | 0.6632 | 65 |
| Nc1nc(-c2ccc(F)cc2)cs1 [compound 9a] | 51 | 49 | 57 | 45 | 0.01901 | 0.01582 | 0.5707 | 0.4515 | 51 |
